The values that follow are results of earlier work, collected in patent US20050053655A1, “Rapid disintegrating tablets (RDTs) for pharmaceutical use and method for preparing the same” (Pharmaceutical Industry Technology and Development Center, priority 2003, published 2005).

With `NC(N)=Nc1nc(CSCCC(N)=NS(N)(=O)=O)cs1` [Famotidine, famotidine], the solubility in water result is “very slightly soluble in water”.
